System: Influenza A/WSN/33-Luciferase virus
Assay: microbe, parasite or virus in culture
Format: cell-based
Settings: A549, 72 h, luciferase signal three days later, read-out: IC50 antiviral activity (Luciferase reporter assay)

Row | SMILES | IC50
1 | Cn1cccc(Nc2nn(-c3ccc(OC(F)(F)F)cc3)c(=O)c3c2CCC3)c1=O [Example 28, 1-[(1-methyl-2-oxo-3-pyridyl)amino]-3-[4-(trifluoromethoxy)phenyl]-6,7-dihydro-5H-cyclopenta[d]pyridazin-4-one] | 8 nM
2 | Cc1cc(Nc2nn(-c3ccc(OC(F)(F)F)cc3)c(=O)c3c2CCC3)c(=O)n(C)n1 [Example 29, 1-[(2,6-dimethyl-3-oxo-pyridazin-4-yl)amino]-3-[4-(trifluoromethoxy)phenyl]-6,7-dihydro-5H-cyclopenta[d]pyridazin-4-one] | 22 nM
3 | Cn1cncc(Nc2nn(-c3ccc(OC(F)(F)F)cc3)c(=O)c3c2CCC3)c1=O [Example 30, 1-[(1-methyl-6-oxo-pyrimidin-5-yl)amino]-3-[4-(trifluoromethoxy)phenyl]-6,7-dihydro-5H-cyclopenta[d]pyridazin-4-one] | 37 nM
4 | Cn1cc(F)cc(Nc2nn(-c3ccc(OC(F)(F)F)cc3)c(=O)c3c2CCC3)c1=O [Example 31, 1-[(5-fluoro-1-methyl-2-oxo-3-pyridyl)amino]-3-[4-(trifluoromethoxy)phenyl]-6,7-dihydro-5H-cyclopenta[d]pyridazin-4-one] | 8 nM
5 | Cc1cc(Nc2nn(-c3ccc(OC(F)(F)F)cc3)c(=O)c3c2CCC3)c(=O)n(C)c1 [Example 32, 1-[(1,5-dimethyl-2-oxo-3-pyridyl)amino]-3-[4-(trifluoromethoxy)phenyl]-6,7-dihydro-5H-cyclopenta[d]pyridazin-4-one] | 12 nM
6 | Cn1cc(Cl)cc(Nc2nn(-c3ccc(OC(F)(F)F)cc3)c(=O)c3c2CCC3)c1=O [Example 33, 1-[(5-chloro-1-methyl-2-oxo-3-pyridyl)amino]-3-[4-(trifluoromethoxy)phenyl]-6,7-dihydro-5H-cyclopenta[d]pyridazin-4-one] | 6 nM
7 | Cn1cc(C(F)(F)F)cc(Nc2nn(-c3ccc(OC(F)(F)F)cc3)c(=O)c3c2CCC3)c1=O [Example 34, 1-[[1-methyl-2-oxo-5-(trifluoromethyl)-3-pyridyl]amino]-3-[4-(trifluoromethoxy)phenyl]-6,7-dihydro-5H-cyclopenta[d]pyridazin-4-one] | 195 nM
8 | CCc1cc(Nc2nn(-c3ccc(OC(F)(F)F)cc3)c(=O)c3c2CCC3)c(=O)n(C)c1 [Example 35, 1-[(5-ethyl-1-methyl-2-oxo-3-pyridyl)amino]-3-[4-(trifluoromethoxy)phenyl]-6,7-dihydro-5H-cyclopenta[d]pyridazin-4-one] | 68 nM
9 | CC(C)c1cc(Nc2nn(-c3ccc(OC(F)(F)F)cc3)c(=O)c3c2CCC3)c(=O)n(C)c1 [Example 36, 1-[(5-isopropyl-1-methyl-2-oxo-3-pyridyl)amino]-3-[4-(trifluoromethoxy)phenyl]-6,7-dihydro-5H-cyclopenta[d]pyridazin-4-one] | 579 nM
10 | COC(=O)CCCn1cc(Cl)cc(Nc2nn(-c3ccc(OC(F)(F)F)cc3)c(=O)c3c2CCC3)c1=O [Example 37, methyl 4-[5-chloro-2-oxo-3-[[4-oxo-3-[4-(trifluoromethoxy)phenyl]-6,7-dihydro-5H-cyclopenta[d]pyridazin-1-yl]amino]-1-pyridyl]butanoate] | 20 nM
11 | COC(=O)CCCn1cccc(Nc2nn(-c3ccc(OC(F)(F)F)cc3)c(=O)c3c2CCC3)c1=O [Example 38, methyl 4-[2-oxo-3-[[4-oxo-3-[4-(trifluoromethoxy)phenyl]-6,7-dihydro-5H-cyclopenta[d]pyridazin-1-yl]amino]-1-pyridyl]butanoate] | 23 nM
12 | CCOC(=O)COCCn1cccc(Nc2nn(-c3ccc(OC(F)(F)F)cc3)c(=O)c3c2CCC3)c1=O [Example 39, ethyl 2-[2-[2-oxo-3-[[4-oxo-3-[4-(trifluoromethoxy)phenyl]-6,7-dihydro-5H-cyclopenta[d]pyridazin-1-yl]amino]-1-pyridyl]ethoxy]acetate] | 230 nM
13 | O=c1c(Nc2nn(-c3ccc(OC(F)(F)F)cc3)c(=O)c3c2CCC3)cccn1CCn1ccnc1 [Example 40, 1-[[1-(2-imidazol-1-ylethyl)-2-oxo-3-pyridyl]amino]-3-[4-(trifluoromethoxy)phenyl]-6,7-dihydro-5H-cyclopenta[d]pyridazin-4-one] | 100 nM
14 | CCOC(=O)C1CN(CCn2cccc(Nc3nn(-c4ccc(OC(F)(F)F)cc4)c(=O)c4c3CCC4)c2=O)CCO1 (stereo not shown) [Example 41, ethyl 4-[2-[2-oxo-3-[[4-oxo-3-[4-(trifluoromethoxy)phenyl]-6,7-dihydro-5H-cyclopenta[d]pyridazin-1-yl]amino]-1-pyridyl]ethyl]morpholine-2-carboxylate] | 60 nM
15 | COC1CCN(CCn2cccc(Nc3nn(-c4ccc(OC(F)(F)F)cc4)c(=O)c4c3CCC4)c2=O)C1 (stereo not shown) [Example 42, 1-[[1-[2-(3-methoxypyrrolidin-1-yl)ethyl]-2-oxo-3-pyridyl]amino]-3-[4-(trifluoromethoxy)phenyl]-6,7-dihydro-5H-cyclopenta[d]pyridazin-4-one] | 40 nM
16 | CC(C)(C)OC(=O)N(CCn1cccc(Nc2nn(-c3ccc(OC(F)(F)F)cc3)c(=O)c3c2CCC3)c1=O)CC(=O)O [Example 43, 2-[tert-butoxycarbonyl-[2-[2-oxo-3-[[4-oxo-3-[4-(trifluoromethoxy)phenyl]-6,7-dihydro-5H-cyclopenta[d]pyridazin-1-yl]amino]-1-pyridyl]ethyl]amino]acetic acid] | 84 nM
17 | O=c1c(Nc2nn(-c3ccc(OC(F)(F)F)cc3)c(=O)c3c2CCC3)cccn1CCCN1CCOCC1 [Example 44, 1-[[1-(3-morpholinopropyl)-2-oxo-3-pyridyl]amino]-3-[4-(trifluoromethoxy)phenyl]-6,7-dihydro-5H-cyclopenta[d]pyridazin-4-one] | 28 nM
18 | CC(C)(C)OC(=O)NCCn1cccc(Nc2nn(-c3ccc(OC(F)(F)F)cc3)c(=O)c3c2CCC3)c1=O [Example 45, tert-butyl N-[2-[2-oxo-3-[[4-oxo-3-[4-(trifluoromethoxy)phenyl]-6,7-dihydro-5H-cyclopenta[d]pyridazin-1-yl]amino]-1-pyridyl]ethyl]carbamate] | 286 nM
19 | O=c1c(Nc2nn(-c3ccc(OC(F)(F)F)cc3)c(=O)c3c2CCC3)cccn1CCN1CC(O)C1 [Example 46, 1-[[1-[2-(3-hydroxyazetidin-1-yl)ethyl]-2-oxo-3-pyridyl]amino]-3-[4-(trifluoromethoxy)phenyl]-6,7-dihydro-5H-cyclopenta[d]pyridazin-4-one] | 33 nM
20 | O=c1c(Nc2nn(-c3ccc(OC(F)(F)F)cc3)c(=O)c3c2CCC3)cncn1CCO [Example 47, 1-[[1-(2-hydroxyethyl)-6-oxo-pyrimidin-5-yl]amino]-3-[4-(trifluoromethoxy)phenyl]-6,7-dihydro-5H-cyclopenta[d]pyridazin-4-one] | 71 nM
21 | CN1CCN(CCCn2cccc(Nc3nn(-c4ccc(OC(F)(F)F)cc4)c(=O)c4c3CCC4)c2=O)CC1 [Example 48, 1-[[1-[3-(4-methylpiperazin-1-yl)propyl]-2-oxo-3-pyridyl]amino]-3-[4-(trifluoromethoxy)phenyl]-6,7-dihydro-5H-cyclopenta[d]pyridazin-4-one] | 18 nM
22 | O=c1c(Nc2nn(-c3ccc(OC(F)(F)F)cc3)c(=O)c3c2CCC3)cccn1CCCO [Example 49, 1-[[1-(3-hydroxypropyl)-2-oxo-3-pyridyl]amino]-3-[4-(trifluoromethoxy)phenyl]-6,7-dihydro-5H-cyclopenta[d]pyridazin-4-one] | 16 nM

Reference: patent US10597380B2, “Pyridazinone-based broad spectrum anti-influenza inhibitors” (Hoffmann-La Roche Inc., priority 2017, dated 2020)
